The test concerns the target T1, IL-17A/A (Homo sapiens, UniProt Q16552).
T1 construct: purchased Genscript Z03228
T1 sequence (Q16552 24-155): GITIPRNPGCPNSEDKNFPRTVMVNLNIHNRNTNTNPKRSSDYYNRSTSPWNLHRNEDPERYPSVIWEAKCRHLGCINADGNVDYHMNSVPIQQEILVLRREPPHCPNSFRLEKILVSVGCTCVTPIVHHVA
Briefly: IL-17A/A HEK-Blue cell assay. The format is cell-based. The conditions noted are these: HEK-Blue IL-17A reporter cell line (HEK 293), IL-17A/A stimulation, 20 hours incubation, SEAP read at A630. The method, boiled down:
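IC50 came from a 4-parameter fit of SEAP read at A630 (Quanti-Blue). Compound was titrated to a top final concentration of 10, 1 or 0.3 uM with 0.1% final DMSO and added just before IL-17A/A. Incubation lasted 20 hours in HEK293 cells engineered with IL-17RA, IL-17RC, Act1 and an NFκB-SEAP reporter.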

The structures appear in SMILES notation. pIC50: −log10 of the molar value.

By pIC50 is commonly meant the negative decadic logarithm of the IC50, by convention in mol/L. `N#Cc1cc(C(=O)N[C@H](c2cn3nc(CC4C[C@@H](C(F)(F)F)CNC4=O)ccc3n2)C2CCC(F)(F)CC2)cs1` (stereo partly drawn) [Compound 134, 5-cyano-N-((1S)-(4,4-difluorocyclohexyl)(6-(((5R)-2-oxo-5-(trifluoromethyl)piperidin-3-yl)methyl)imidazo[1,2-b]pyridazin-2-yl)methyl)thiophene-3-carboxamide]: the negative logarithm of the IC50 (pIC50) was 6.00 to 7.00.
In the case of `CCn1nccc1C(=O)N[C@H](c1cn2nc(CC3C[C@@H](C(F)(F)F)CNC3=O)ccc2n1)C1CC2(C1)CC(F)(F)C2` (single isomer, unassigned) [Compound 173], the negative logarithm of the IC50 (pIC50) was 6.00 to 7.00.
The same measure for `CCn1nccc1C(=O)N[C@H](c1cn2nc(CC3C[C@@H](C(F)(F)F)CNC3=O)ccc2n1)[C@H]1C[C@@H](C2CC2)C1` (stereo partly drawn) [Compound 179, N-((1S)-((1S,3R)-3-cyclopropylcyclobutyl)(6-(((5R)-2-oxo-5-(trifluoromethyl)piperidin-3-yl)methyl)imidazo[1,2-b]pyridazin-2-yl)methyl)-1-ethyl-1H-pyrazole-5-carboxamide]: < 6.00.
Consider `C[C@H]1CC[C@H]([C@H](NC(=O)c2ccnn2CCO)c2cn3nc(CC4C[C@@H](C(F)(F)F)CNC4=O)ccc3n2)CC1` (stereo partly drawn) [Compound 167, 1-(2-hydroxyethyl)-N—((S)-((1R.4S)-4-methylcyclohexyl)(6-(((3R.5R)-2-oxo-5-(trifluoromethyl)piperidin-3-yl)methyl)imidazo[1,2-b]pyridazin-2-yl)methyl)-1H-pyrazole-5-carboxamide], for which the pIC50 is 6.00 to 7.00.
In the case of `CCn1nccc1C(=O)N[C@H](c1cn2nc(CC3C[C@@H](C(F)(F)F)CNC3=O)ccc2n1)[C@@H]1CCCC(F)(F)C1` (stereo partly drawn) [Compound 194, N-((1S)—((R)-3,3-difluorocyclohexyl)(6-(((5R)-2-oxo-5-(trifluoromethyl)piperidin-3-yl)methyl)imidazo[1,2-b]pyridazin-2-yl)methyl)-1-ethyl-1H-pyrazole-5-carboxamide] it was < 6.00; in that of `CC(C)n1nccc1C(=O)N[C@H](c1cn2nc(CC3C[C@H](C(F)(F)F)CNC3=O)ccc2n1)[C@H]1CCCC(F)(F)C1` (stereo partly drawn) [Compound 159, N-((1S)—((S)-3,3-difluorocyclohexyl)(6-(((5S)-2-oxo-5-(trifluoromethyl)piperidin-3-yl)methyl)imidazo[1,2-b]pyridazin-2-yl)methyl)-1-isopropyl-1H-pyrazole-5-carboxamide], > 7.00; in that of `CCn1nccc1C(=O)N[C@H](c1cn2nc(C(C)C3C[C@@H](C(F)(F)F)CNC3=O)ccc2n1)C(C1CC1)C1CC1` (single isomer, unassigned) [Compound 55], 6.00 to 7.00.
The same measure for `CCn1nccc1C(=O)N[C@H](c1cn2nc(CC3CC(F)(F)CNC3=O)ccc2n1)C1CCCCCC1` (single isomer, unassigned) [Compound 10, N-((1 S)-cycloheptyl(6-((5,5-difluoro-2-oxopiperidin-3-yl)methyl)imidazo[1,2-b]pyridazin-2-yl)methyl)-1-ethyl-1H-pyrazole-5-carboxamide]: 6.00 to 7.00; for `CC(C)c1nonc1C(=O)N[C@H](c1cn2nc(CC3C[C@@H](C(F)(F)F)CNC3=O)ccc2n1)[C@@H]1CCCC(F)(F)C1` (stereo partly drawn) [Compound 151, N-((1S)—((R)-3,3-difluorocyclohexyl)(6-(((5R)-2-oxo-5-(trifluoromethyl)piperidin-3-yl)methyl)imidazo[1,2-b]pyridazin-2-yl)methyl)-4-isopropyl-1,2,5-oxadiazole-3-carboxamide]: > 7.00.
In the case of `CCn1nccc1C(=O)N[C@H](c1cn2nc(CC3CC(CC(F)(F)F)CNC3=O)ccc2n1)C1CCC(F)(F)CC1` (single isomer, unassigned) [Compound 66] it was 6.00 to 7.00; in that of `CCn1nccc1C(=O)N[C@H](c1cn2nc(CC3C[C@@H](C(F)(F)F)CNC3=O)c(N(C)C3CCOCC3)cc2n1)C1CCC(F)(F)CC1` (single isomer, unassigned) [Compound 93], 6.00 to 7.00.
Regarding `O=C(N[C@H](c1cn2nc(CC3C[C@@H](C(F)(F)F)CNC3=O)ccc2n1)C1CCC(F)(F)CC1)c1nonc1C(F)F` (stereo partly drawn) [Compound 115, N-((1S)-(4,4-difluorocyclohexyl)(6-(((5R)-2-oxo-5-(trifluoromethyl)piperidin-3-yl)methyl)imidazo[1,2-b]pyridazin-2-yl)methyl)-4-(difluoromethyl)-1,2,5-oxadiazole-3-carboxamide], the pIC50 was 6.00 to 7.00.
In the case of `O=C(N[C@H](c1cn2nc(CC3C[C@@H](C(F)(F)F)CNC3=O)ccc2n1)C1CCC(F)(F)CC1)c1conc1C1CC1(F)F` (single isomer, unassigned) [Compound 127] it was > 7.00; in that of `CCn1nccc1C(=O)N[C@H](c1cn2nc(CC3CC(CC(F)(F)F)CNC3=O)ccc2n1)C1CCC(F)(F)CC1` (single isomer, unassigned) [Compound 65], 6.00 to 7.00; in that of `CCn1nccc1C(=O)N[C@H](c1cn2nc(CC3CC(C)(C)CNC3=O)ccc2n1)[C@H]1CC[C@H](C)CC1` (stereo partly drawn) [Compound 58, N-((1S)-(6-((5,5-dimethyl-2-oxopiperidin-3-yl)methyl)imidazo[1,2-b]pyridazin-2-yl)((1r,4S)-4-methylcyclohexyl)methyl)-1-ethyl-1H-pyrazole-5-carboxamide], < 6.00.
In the case of `Cc1nocc1C(=O)N[C@H](c1cn2nc(CC3C[C@@H](C(F)(F)F)CNC3=O)ccc2n1)C1CCC(F)(F)CC1` (stereo partly drawn) [Compound 118, N-((1S)-(4,4-difluorocyclohexyl)(6-(((5R)-2-oxo-5-(trifluoromethyl)piperidin-3-yl)methyl)imidazo[1,2-b]pyridazin-2-yl)methyl)-3-methylisoxazole-4-carboxamide] it was 6.00 to 7.00.
The same measure for `CCn1nccc1C(=O)N[C@H](c1cn2nc(CC3C(=O)NCC3C(F)(F)F)ccc2n1)C(C1CC1)C1CC1` (single isomer, unassigned) [Compound 44]: 6.00 to 7.00.
On to `CCn1nccc1C(=O)N[C@H](c1cn2nc(CC3CC(F)(F)CNC3=O)ccc2n1)C(C1CC1)C1CC1` (single isomer, unassigned) [Compound 28], for which the pIC50 was 6.00 to 7.00.
The same measure for `CCn1nccc1C(=O)N[C@H](c1cn2nc(CC3CC(F)(F)CNC3=O)c(NC(=O)OC)cc2n1)C1CCC(F)(F)CC1` (stereo partly drawn) [Compound 72, methyl (6-((5,5-difluoro-2-oxopiperidin-3-yl)methyl)-2-((S)-(4,4-difluorocyclohexyl)(1-ethyl-1H-pyrazole-5-carboxamido)methyl)imidazo[1,2-b]pyridazin-7-yl)carbamate]: 6.00 to 7.00; for `CCn1nncc1C(=O)N[C@H](c1cn2nc(CC3C[C@@H](C(F)(F)F)CNC3=O)ccc2n1)C1CCC(F)(F)CC1` (stereo partly drawn) [Compound 108, N-((1S)-(4,4-difluorocyclohexyl)(6-(((5R)-2-oxo-5-(trifluoromethyl)piperidin-3-yl)methyl)imidazo[1,2-b]pyridazin-2-yl)methyl)-1-ethyl-1H-1,2,3-triazole-5-carboxamide]: 6.00 to 7.00.
With `O=C(N[C@H](c1cn2nc(CC3C[C@@H](C(F)(F)F)CNC3=O)ccc2n1)C1CCC(F)(F)CC1)c1conc1C(F)(F)F` (stereo partly drawn) [Compound 114, N-((1S)-(4,4-difluorocyclohexyl)(6-(((5R)-2-oxo-5-(trifluoromethyl)piperidin-3-yl)methyl)imidazo[1,2-b]pyridazin-2-yl)methyl)-3-(trifluoromethyl)isoxazole-4-carboxamide], the pIC50 is 6.00 to 7.00.
In the case of `CCn1nccc1C(=O)N[C@H](c1cn2nc(CC3C[C@@H](C(F)(F)F)NC3=O)ccc2n1)C1CCCCCC1` (single isomer, unassigned) [Compound 6] it was < 6.00; in that of `O=C1NC[C@H](C(F)(F)F)CC1Cc1ccc2nc([C@@H](NC(=O)C3CC34CC(F)(F)C4)C3CCC(F)(F)CC3)cn2n1` (single isomer, unassigned) [Compound 131], 6.00 to 7.00; in that of `CCn1nccc1C(=O)N[C@H](c1cn2nc(CC3C(=O)NC4CC3C4)ccc2n1)[C@H]1CC[C@H](C)CC1` (stereo partly drawn) [Compound 61, 1-ethyl-N-((1S)-((1r,4S)-4-methylcyclohexyl)(6-((3-oxo-2-azabicyclo[3.1.1]heptan-4-yl)methyl)imidazo[1,2-b]pyridazin-2-yl)methyl)-1H-pyrazole-5-carboxamide], 6.00 to 7.00.
Take `CC[C@@H](c1ccc(F)cc1)C(NC(=O)c1ccnn1CC)c1cn2nc(CC3CC(F)(F)CNC3=O)ccc2n1` (single isomer, unassigned) [Compound 31]: the negative logarithm of the IC50 (pIC50) is 6.00 to 7.00.
The same measure for `CCn1nccc1C(=O)N[C@H](c1cn2ncc(CC3C[C@@H](C(F)(F)F)NC3=O)cc2n1)C1CCC(F)(F)CC1` (single isomer, unassigned) [Compound 204]: > 7.00.
On to `CCn1nccc1C(=O)N[C@H](c1cn2nc(CC3C[C@@H](C(F)(F)F)CNC3=O)ccc2n1)[C@@H]1C[C@H]2C[C@H]2C1` (stereo partly drawn) [Compound 170, N-((1S)-((1R,3S,5S)-bicyclo[3.1.0]hexan-3-yl)(6-(((5R)-2-oxo-5-(trifluoromethyl)piperidin-3-yl)methyl)imidazo[1,2-b]pyridazin-2-yl)methyl)-1-ethyl-1H-pyrazole-5-carboxamide], for which the pIC50 was < 6.00.
In the case of `O=C(N[C@H](c1cn2nc(CC3C[C@@H](C(F)(F)F)CNC3=O)ccc2n1)C1CCC(F)(F)CC1)c1conc1C1CC(F)(F)C1` (stereo partly drawn) [Compound 124, 3-(3,3-difluorocyclobutyl)-N-((1S)-(4,4-difluorocyclohexyl)(6-(((5R)-2-oxo-5-(trifluoromethyl)piperidin-3-yl)methyl)imidazo[1,2-b]pyridazin-2-yl)methyl)isoxazole-4-carboxamide] it was 6.00 to 7.00.

These data come from patent publication US20250346602A1, “LACTAM SUBSTITUTED IMIDAZOPYRIDAZINE IL-17A MODULATORS AND USES THEREOF” (DICE ALPHA, INC., priority 2022, published 2025).
